These results are taken from patent publication US20230133958A1, “COMPOUNDS USEFUL IN MODULATING EGFR AND PI3K” (Mekanistic Therapeutics LLC, priority 2021, published 2023).

A short description of this series: Metabolic stability in human liver microsomes. As to conditions: Human Liver Microsome (HLM). The format is in vitro ADME. The procedure:
Working solution: 5 µL of compound and control stock solution (10 mM in dimethyl sulfoxide (DMSO)) were diluted with 495 µL of acetonitrile (ACN) (intermediate solution concentration: 100 µM, 99% ACN)
NADPH Cofactor Preparation: NADPH powder: β-Nicotinamide adenine dinucleotide phosphate reduced form, tetrasodium salt; NADPH 4 Na. The appropriate amount of NADPH powder was weighed and diluted into a 10 mM MgCl2 solution (working solution concentration: 10 unit/mL; final concentration in reaction system: 1 unit/mL)
Liver Microsomes Preparation: The appropriate concentrations of microsome working solutions were prepared in 100 mM potassium phosphate buffer. Cold (4° C.) acetonitrile (ACN) containing 200 ng/mL tolbutamide and 200 ng/mL labetalol as internal standards (IS) was used as the stop solution
Assay Procedure: Pre-warm empty ‘Incubation’ plates T60 and NCF60 for 10 minutes. Dilute liver microsomes to 0.56 mg/mL in 100 mM phosphate buffer. Transfer 445 µL microsome working solutions (0.56 mg/mL) into pre-warmed ‘Incubation’ plates T60 and NCF60, Then pre-incubate ‘Incubation’ plates T60 and NCF60 for 10 min at 37° C. with constant shaking. […]
The biological stability of the compounds of the invention can be measured by determining its ½ life in the presence microsomes. […]
A general note: Microsomes from liver hold many membrane-bound enzymes, among them those of drug oxidation.

A word on the half-life: it is the time in which the quantity being followed falls by half. Low readings indicate fast loss, high ones slow loss. `CS(=O)(=O)Nc1cc(-c2ccc3ncnc(Nc4cccc(Cl)c4F)c3c2)cnc1Cl` [Compound 6, N-[2-chloro-5-[4-(3-chloro-2-fluoro-anilino)quinazolin-6-yl]-3-pyridyl] methanesulfonamide] had a half-life at 1 µM of 10 to 100 min.
